The subject of experiment [1] is isolated rat liver mitochondria. Description: ROS production in isolated mitochondria (DCF formation). Conditions: for ROS production: mitochondria in state 4; for increase of the rate of ROS production versus control: state 3 respiration, after the induction phase. Type of experiment: biochemical. The method, then:
Male Long Evans rats are starved overnight and sacrificed by decapitation. Liver samples are homogenized in ice cold buffer A (250 mM sucrose, 10 mM Tris, 0.1 mM EGTA, pH 7.4), and nuclei and cellular debris are pelleted ([…], 830g, 4° C.). Mitochondria are collected by centrifugation (10 min, 15,000g, 4° C.), and the supernatant is collected as the S15 fraction. The mitochondrial pellet is washed three times with buffer B (250 mM sucrose, 10 mM Tris, pH 7.4), and re-suspended in buffer B at 20-30 mg/mL. Mitochondria are diluted (0.5 mg/mL) in buffer C (200 mM sucrose, 10 mM Tris, pH 7.4, 1 mM KH2PO4, 10 μM EGTA, 2.5 μM rotenone, 5 mM succinate) containing 2′,7′-dichlorodihydrofluorescin diacetate (DCFH-DA, 1 μM). For state 3 measurements, ADP (2 mM) is included in the buffer, and prior to the addition of Bz-423, mitochondria are allowed to charge for 2 min. To induce state 4, oligomycin (10 μM) is added to buffer C. […] To detect effects on O2^− and delta ψm, mitochondria are incubated for 15 min at 37° C. in buffer C with vehicle, Bz-423, or CCCP containing DHE (5 μM) or DIOC6(3) (20 nM), and aliquots are removed for analysis by fluorescence microscopy.
O2^− production by Bz-423 may result from binding to a protein within mitochondria or a target in another compartment that signals mitochondria to generate ROS. To distinguish between these alternatives, isolated rat liver mitochondria were assayed for ROS production by monitoring the oxidation of 2′,7′-dichlorodihydrofluorescin diacetate to of 2′,7′-dichlorofluorescin in the presence and absence of Bz-423. In this assay, the rate of DCF production increased after a lag period during which endogenous reducing equivalents were consumed and the acetate moieties on the probe were hydrolyzed to yield 2′,7′-dichlorodihydrofluorescin, the redox-active species.

For experiment [2], the target named is T1, mitochondrial F1F0-ATPase (Bos taurus, UniProt P13621).
T1 construct: from tissue
Description: ATPase activity in sub-mitochondrial particles (SMPs). The experiment is classed as biochemical, bovine. Particulars: at 80 μM. The source says: Oligomycin, a macrolide natural product that binds to the mitochondrial F1F0-ATPase, induces a state 3 to 4 transition and generates O2^− like Bz-423. Based on these similarities, it is possible that the F1F0-ATPase is also the molecular target for Bz-423. To test this hypothesis, the effect of Bz-423 on ATPase activity in sub-mitochondrial particles (SMPs) was examined.
>40 derivatives of Bz-423 were developed to determine the elements on this novel agent required for biological activity. […] The potency of these analogues in cell based assays correlated with the ED50 values in ATPase inhibition experiments using SMPs.

A further experiment deals with panel of cells. Description: antiproliferation of Bz-Cl against the panel of cells, 3 d. Type of experiment: cell-based. Particulars: after 3 d.
For a further experiment, the system named is B cells. Description: collapse of mitochondrial transmembrane potential, DiOC6(3). Conditions: by 5 hours. The experiment is classed as cell-based. The method, then:
To detect O2^−, cells are incubated with DHE (10 μM) for 30 min at 37° C. and are analyzed by flow cytometry to measure ethidium fluorescence. Flow analysis of mitochondrial transmembrane potential (ψm) is conducted by labeling cells with DiOC6(3) (20 nM) for 15 min at 37 degrees C. A positive control for disruption of ψm is established using carbonyl cyanide m-chlorophenylhydrazone (CCCP, 50 μM). Caspase activation assays are performed with FAM-VAD-fluoromethylketone. Processing of the substrate is evaluated by flow cytometry.
To characterize the death mechanism engaged by Bz-423, intracellular ROS, ΔΨm, cytochrome c release, caspase activation, and DNA fragmentation were measured over time (the results presented are for B cells but do characterize the response in many different cell types). The first event detected after exposure to Bz-423 is an increase in the fraction of cells that stain with dihyroethedium (DHE), a redox-sensitive agent that reacts specifically with O2^−.
Collapse of ΔΨm was detected using DiOC6(3), a mitochondria-selective potentiometric probe.

The subject of experiment [3] is migration inhibitory factor (MIF). Description: gene expression profiling of treated cells. Type of experiment: cell-based, human. The source says:
In response to antigenic or mitogenic stimulation, lymphocytes secrete protein mediators, one of which is named migration inhibitory factor (MIF) for its ability to prevent the migration of macrophages in vitro. MIF may be an anti-tumor agent. In addition, the ability of MIF to prevent the migration of macrophages may be exploited for treating wounds. MIF may alter the immune response to different antigens. MIF links chemical and immunological detoxification systems. MIF was induced approximately 10-fold by Bz-423. Thus, the present invention contemplates the use of MIF as a target of the compounds of the present invention.
In vitro testing with Ramos cells to determine the changes in gene expression (at the level of mRNA) induced by Bz-423 was performed by culturing cells at a density of 500,000 cells per ml. Solvent control (DMSO, final concentration 0.1% V/V]), Bz-423, or Bz-OMe (10 μM) was added to cells. After 4 h, cells were harvested and RNA prepared using Trizol Reagent (#15596-018, Life Technologies, Rockville, Md.) and the RNeasy Maxi Kit (#75162, Qiagen, Valencia, Calif.) according to manufacturers protocols. Single stranded cDNA was synthesized by reverse transcription using poly (A) RNA present in the starting total RNA sample. […] Hybridization results were quantified using a GeneArray scanner and analysis carried out according to the instructions provided by Affymetrix.

Experiment [4] concerns ornithine decarboxylase (ODC). Description: ODC activity in treated cells, conversion of 3H-ornithine to putrescine. The experiment is classed as cell-based. Particulars: cells treated 4 h. As for the experimental part: In these experiments, the conversion of ornithine to putrescine was quantified using ^3H-ornithine. For comparisons, control cells were treated with vehicle control or difluoromethyl ornithine (DFMO), a potent inhibitor of ornithine decarboxylase (like Bz-423, DFMO is a potent anti-proliferative agent). […] The reduction in ODC activity was paralleled by a decrease in ODC protein levels measured under the same conditions.
As described above, Bz-423 induced apoptosis was signaled by an ROS response that arose from MRC complex III as a result of the state 3 to 4 transition. It was next sought to determine if the ROS response, critical for apoptosis, also mediated these effects on ODC. If the ROS was required for the decrease in ODC activity, it would likewise be implicated as potentially part of the anti-proliferative response to Bz-423. To test this, Ramos cells were treated with Bz-423, DFMO, or vehicle control for 4 h. In parallel, a second group of cells was pre-incubated with MnTBAP to limit the ROS and then cultured with Bz-423, DFMO, and vehicle control.

In experiment [5] the test system is sub-mitochondrial particles. Description: redox cycling, NADH and NAD(P)H oxidation assays with sub-mitochondrial particles. Particulars: SMPs. The experiment is classed as biochemical. The method, then: By contrast, replacing the hydroxyl with chlorine or azide, or methylating the phenol effectively abolishes the cytotoxic activity of Bz-423. […] Such agents accept an electron from MRC enzymes and transfer it back to the chain at point of higher reducing potential. This type of ‘redox cycling’ consumes endogenous reducing equivalents (e.g., glutathione) along with […] nucleotides and results in cell death. To distinguish between these alternatives, it was determined whether Bz-423 redox cycles in the presence of sub-mitochondrial particles using standard NADH and NAD(P)H oxidation assays.

A further experiment has as its system Ramos cells. Description: cytotoxicity versus antiproliferation in media with 10% FBS. The experiment is classed as cell-based, human. Conditions: >20 μM. As for the experimental part:
Like most 1,4-benzodiazepines, Bz-423 binds strongly to bovine serum albumin (BSA), which reduces the effective concentration of drug free in solution. For example, in tissue culture media containing 10% (v/v) fetal bovine serum (FBS), ca. 99% of the drug is bound to BSA. Therefore, cell culture cytotoxicity assays are conducted in media with 2% FBS to reduce binding to BSA and increase the free [Bz-423]. Under these conditions, the dose response-curve is quite sharp such that there is a limited concentration range at which Bz-423 is only partly effective. Since some benzodiazepines are known to have anti-proliferative properties, the effect of Bz-423 at concentrations <ED50 were carefully analyzed and observed that in addition to inducing apoptosis, Bz-423 prevented cell growth after 3 d in culture. In these low serum conditions, the cytotoxic and anti-proliferative effects overlapped making it difficult to study each effect independently. […] While higher amounts of drug may also block proliferation, it caused apoptosis well before the effects on proliferation could be observed.

Another experiment concerns Namalwa ρ0 cells. Description: ROS response in cells devoid of mtDNA. The experiment is classed as cell-based. The method, then:
ROS in response to Bz-423. Complexes I-IV in the MRC are partially encoded by mitochondrial DNA (mtDNA). […] Because ethidium bromide is toxic to Ramos cells, these experiments were conducted with Namalwa B cells, another mature B cell line.

On to antimycin A [reference compound], for which, in experiment [1], the ROS production result is “active” and the “increase of the rate of ROS production versus control” value was “nearly two-fold”.
As for `CCC(C)N(C)C(=O)c1cc2ccccc2c(-c2ccccc2Cl)n1` (stereo not shown) [PK11195], the “inhibition of mitochondrial ATPase activity” value in [2] was “do not significantly inhibit”.
For `CN1C(=O)C(Cc2ccc3ccccc3c2)N=C(c2ccc(Cl)cc2)c2cc(Cl)ccc21` (stereo not shown) [Bz-Cl], the “ED50 for reduced proliferation compared with Bz-423” value with panel of cells is “comparable ED50 values”.
Consider `CN1C(=O)CN=C(c2ccc(Cl)cc2)c2cc(Cl)ccc21` [4-Cl-diazepam, 4-chlorodiazepam], for which the “inhibition of mitochondrial ATPase activity” value in [2] is on record as “do not significantly inhibit”.
Regarding `CN1C(=O)C(Cc2ccc3ccccc3c2)N=C(c2ccc(O)cc2)c2cc(Cl)ccc21` (stereo not shown) [Bz-423], in experiment [1], the ROS production result is “does not stimulate ROS” and the “increase of the rate of ROS production versus control” value was “nearly two-fold”. Further, the “cells with collapse of ΔΨm” value in the experiment on B cells is reported as > 90 % of cells. The “induction of MIF” value in experiment [3] is “approximately 10 fold”. Also, the “effect on ODC activity” value in [4] was “significantly reduced ODC activity in a dose-dependant fashion”. In addition, the “substrate oxidation (redox cycling)” value in [5] is reported as “does not lead to substrate oxidation”. In addition, in the experiment on Ramos cells, the cellular effect observed result was “only apoptosis was observed”. For the same compound, in the experiment on Namalwa ρ0 cells, the ROS response result was “did not result in an ROS response”.

These data come from patent US8722667B2, “Compositions and methods for inhibiting the proliferation of cells” (The Regents of the University of Michigan, priority 1999, dated 2014).
